Data taken from patent US6362369B1, “Phthalic acid diamide derivatives fluorine-containing aniline compounds as starting material, agricultural and horticultural insecticides, and a method for application of the insecticides” (Nihon Nohyaku Co., Ltd., priority 1997, dated 2002).

Legend:
Type in all cases: in vivo
[1] = test system: rice leafroller (Cnaphalocrocis medinalis); assay: Insecticidal effect on rice leafroller (Test Example 3); details: 500 ppm; rice lamina immersed; third-instar larvae of rice leafroller; four days after inoculation; 25° C., humidity 70%
Outline: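 Groups of 10 third-instar larvae, in triplicate, are placed on air-dried lamina resting on wet filter paper. Incubation runs four days at 25° C with 70% humidity before survivors and dead are tallied.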

[2] = test system: common cutworm (Spodoptera Litura); assay: Insecticidal effect on common cutworm (Test Example 2); details: 500 ppm; cabbage leaf immersed; second-instar larvae of common cutworm; eight days after inoculation; 25° C.
Outline: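 Mortality is the read-out: larvae are counted as dead or alive on day 8 and the percentage is graded by an effect criterion. Second-instar larvae are kept with the air-dried treated material in a sealed dish at 25° C, in triplicate groups of ten.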

[3] = test system: diamondback moth (Plutella xylostella); assay: Insecticidal effect on diamondback moth (Test Example 1); details: diamondback moth; judged by the mortality criterion of Test Example 1
Outline: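 Chinese cabbage seedlings carrying eggs laid by released adult moths were immersed in treatment, air-dried and held at 25° C. Hatched insects were counted six days after immersion, and mortality was calculated and scored against a fixed criterion. Three replicate groups of 10 insects were used.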

SMILES | Insecticidal effect, Test Example 3 [1] | Insecticidal effect, Test Example 2 [2] | Insecticidal effect, Test Example 1 [3]
Cc1cc(C(F)(F)C(F)(F)C(F)(F)C(F)(F)F)ccc1NC(=O)c1c(Cl)cccc1C(=O)NC(C)C [compound 225] | A (100) | B (99-90) | A (100)
Cc1cc(OC(F)(F)C(F)(F)Br)ccc1NC(=O)c1c(Cl)cccc1C(=O)NC(C)C [compound 229] | A (100) | D (79-50) | A (100)
Cc1cc(OCC(F)(F)C(F)F)ccc1NC(=O)c1c(Cl)cccc1C(=O)NC(C)C [compound 230] | A (100) | C (89-80) | A (100)
Cc1cc(OC(F)F)ccc1NC(=O)c1c(Cl)cccc1C(=O)NC(C)C [compound 236] | A (100) | A (100) | A (100)
Cc1cc(OC(F)(F)C(F)Cl)ccc1NC(=O)c1c(Cl)cccc1C(=O)NC(C)C (stereo not drawn) [compound 241] | A (100) | B (99-90) | A (100)
Cc1cc(OC(F)(F)C(F)C(F)(F)F)ccc1NC(=O)c1c(Cl)cccc1C(=O)NC(C)C (stereo not drawn) [compound 242] | A (100) | B (99-90) | A (100)
Cc1cc(OC(F)(F)C(F)(Br)C(F)(F)F)ccc1NC(=O)c1c(Cl)cccc1C(=O)NC(C)C (stereo not drawn) [compound 243] | B (99-90) | A (100) | A (100)
Cc1cc(OC(F)(F)C(F)F)c(Cl)cc1NC(=O)c1c(Cl)cccc1C(=O)NC(C)C [compound 246] | B (99-90) | B (99-90) | A (100)
Cc1cc(Oc2ccc(C(F)(F)F)cn2)ccc1NC(=O)c1c(Cl)cccc1C(=O)NC(C)C [compound 249] | A (100) | D (79-50) | A (100)
CC(C)NC(=O)c1cccc(Cl)c1C(=O)Nc1ccc(OC(F)F)cc1C(F)(F)F [compound 253] | C (89-80) | A (100) | A (100)
CC(C)NC(=O)c1c(Br)cccc1C(=O)Nc1ccc(C(F)(F)F)cc1 [compound 261] | D (79-50) | A (100) | A (100)
Cc1c(Cl)cccc1NC(=O)c1cccc(Br)c1C(=O)NC(C)C [compound 266] | A (100) | A (100) | A (100)
Cc1cc(Cl)ccc1NC(=O)c1cccc(Br)c1C(=O)NC(C)C [compound 267] | A (100) | A (100) | A (100)
Cc1ccc(Cl)cc1NC(=O)c1cccc(Br)c1C(=O)NC(C)C [compound 268] | A (100) | A (100) | A (100)
Cc1c(Cl)ccc(NC(=O)c2cccc(Br)c2C(=O)NC(C)C)c1C [compound 269] | A (100) | A (100) | A (100)
Cc1ccc(NC(=O)c2cccc(Br)c2C(=O)NC(C)C)c(C)c1Cl [compound 270] | A (100) | A (100) | A (100)
CCc1cc(Cl)ccc1NC(=O)c1cccc(Br)c1C(=O)NC(C)C [compound 271] | A (100) | A (100) | A (100)
Cc1cc(Br)ccc1NC(=O)c1cccc(Br)c1C(=O)NC(C)C [compound 272] | A (100) | A (100) | A (100)
Cc1c(Br)ccc(NC(=O)c2cccc(Br)c2C(=O)NC(C)C)c1C [compound 273] | D (79-50) | D (79-50) | A (100)
Cc1cc(I)ccc1NC(=O)c1cccc(Br)c1C(=O)NC(C)C [compound 274] | A (100) | A (100) | A (100)
Cc1cc(F)ccc1NC(=O)c1cccc(Br)c1C(=O)NC(C)C [compound 275] | A (100) | D (79-50) | A (100)

SMILES | Insecticidal effect, Test Example 3 [1] | Insecticidal effect, Test Example 2 [2] | Insecticidal effect, Test Example 1 [3]
CC(C)NC(=O)c1c(Br)cccc1C(=O)Nc1ccc(C(F)(F)F)cc1Cl [compound 276] | A (100) | A (100) | A (100)
Cc1cc(C(F)(F)F)ccc1NC(=O)c1cccc(Br)c1C(=O)NC(C)C [compound 277] | A (100) | A (100) | A (100)
Cc1cc(C(F)(F)C(F)(F)F)ccc1NC(=O)c1cccc(Br)c1C(=O)NC(C)C [compound 278] | A (100) | A (100) | A (100)
Cc1cc(C(F)(F)C(F)(F)C(F)(F)F)ccc1NC(=O)c1cccc(Br)c1C(=O)NC(C)C [compound 279] | A (100) | A (100) | A (100)
COc1ccc(NC(=O)c2cccc(Br)c2C(=O)NC(C)C)c(C)c1 [compound 282] | A (100) | A (100) | A (100)
Cc1cc(OCC(F)(F)C(F)F)ccc1NC(=O)c1cccc(Br)c1C(=O)NC(C)C [compound 283] | A (100) | A (100) | A (100)
Cc1ccc(NC(=O)c2cccc(Br)c2C(=O)NC(C)C)c(C)c1OC(F)F [compound 284] | A (100) | A (100) | A (100)
COc1ccc(NC(=O)c2cccc(Br)c2C(=O)NC(C)C)c(C)c1C [compound 285] | A (100) | D (79-50) | A (100)
CC(C)NC(=O)c1c(Br)cccc1C(=O)Nc1ccc(OC(F)(F)F)cc1Cl [compound 286] | A (100) | A (100) | A (100)
CC(C)NC(=O)c1c(Br)cccc1C(=O)Nc1ccc(OC(F)(F)F)cc1Br [compound 287] | A (100) | A (100) | A (100)
Cc1cc(OC(F)F)ccc1NC(=O)c1cccc(Br)c1C(=O)NC(C)C [compound 288] | A (100) | A (100) | A (100)
Cc1cc(OC(F)(F)F)ccc1NC(=O)c1cccc(Br)c1C(=O)NC(C)C [compound 289] | A (100) | A (100) | A (100)
Cc1cc(OC(F)(F)Br)ccc1NC(=O)c1cccc(Br)c1C(=O)NC(C)C [compound 290] | A (100) | A (100) | A (100)
Cc1cc(OC(F)(F)C(F)C(F)(F)F)ccc1NC(=O)c1cccc(Br)c1C(=O)NC(C)C (stereo not drawn) [compound 291] | A (100) | A (100) | A (100)
Cc1cc(OC(F)(F)C(F)Cl)ccc1NC(=O)c1cccc(Br)c1C(=O)NC(C)C (stereo not drawn) [compound 292] | A (100) | A (100) | A (100)
Cc1cc(OC(F)(F)C(F)F)ccc1NC(=O)c1cccc(Br)c1C(=O)NC(C)C [compound 293] | A (100) | A (100) | A (100)
Cc1c(NC(=O)c2cccc(Br)c2C(=O)NC(C)C)ccc(OC(F)F)c1Cl [compound 294] | A (100) | A (100) | A (100)
CSc1ccc(NC(=O)c2cccc(Br)c2C(=O)NC(C)C)c(C)c1 [compound 296] | A (100) | A (100) | A (100)
Cc1cc(Oc2cccc(C(F)(F)F)c2)ccc1NC(=O)c1cccc(Br)c1C(=O)NC(C)C [compound 297] | B (99-90) | A (100) | A (100)
Cc1cc(Oc2ncc(C(F)(F)F)cc2Cl)ccc1NC(=O)c1cccc(Br)c1C(=O)NC(C)C [compound 298] | A (100) | A (100) | A (100)
